Source: patent US12560588B2, “High-efficiency screening method for RNA-targeting drugs using nanopores” (KOREA RESEARCH INSTITUTE OF BIOSCIENCE AND BIOTECHNOLOGY, priority 2020, dated 2026)

Columns and labels:
[1] = system: ARS; experiment: 1D CPMG ligand-observed NMR; conditions: absence vs presence of ARS
[2] = system: 5′L-iav-RNA; assay type: binding, influenza A virus
[3] = system: 3′L-iav-RNA; assay type: binding, influenza A virus
[4] = system: adenine-sensing riboswitch (ARS); experiment: α-hemolysin nanopore measurement of ARS with ligand; assay type: binding, Vibrio vulnificus; conditions: for dwell time relative to free ARS: type-II translocation event, individual compounds
Description: RNAs were synthesized by Integrated DNA Technologies (Coralville, IA, USA). All RNAs were dialyzed against 10 mM potassium phosphate (pH 6.2) buffer for at least 12 hours. After heating RNAs at 95° C. for 5 minutes, it was cooled quickly in the ice and annealed. The nanopore experiment was performed at RNA concentration of 10 to 500 nm. α-hemolysin (α-HL) protein was purchased from List Biological Laboratories Inc. (CAMPBELL, CA, USA). 1,2-diphytanoylsn-glycero-3-phosphocholine(DPhPC) was purchased from Avanti Polar Lipids (Alabaster, Al, USA).
Specifically, in the buffer containing 10 mM potassium phosphate (pH 6.2), 2 mM MgCl2 and 1M KCl, free ARS or ARS-adenine complex was added to the cis face of a lipid bilayer with a single α-HL nanopore. If the voltage of (+) 100 mV is applied on the nanopore, the free ARS or the ARS-adenine complex is driven by electrophoresis to block the ion current. The nanopore events of the free ARS and ARS-adenine complex were statistically analyzed (a to c in FIG. 2).
The average I/I0 value of level 1 (III1) of the type-II event is 0.45, which corresponds to about 50% of level 2 (III2). After separating the types I and II nanopore events of the complex, each type of event was statistically analyzed. The type I and II events of the ARS-adenine complex is different in the average value and dwell time of I/I0 ((b) to (c) in FIG. 3).

[5] = system: PreQ1-sensing riboswitch (PreQ1 rs); experiment: α-hemolysin nanopore measurement of PreQ1 rs with PreQ1; assay type: binding
Description: The PreQ1 rs is synthesized by Integrated DNA Technologies (Coralville, IA, USA). The PreQ1 rs used in the test was designed by adding GG sequences to the 5′ end of the 34nt basic aptamer sequences for the ease of secondary verification (NMR analysis, etc.) of the riboswitch structural change by binding of the PreQ1 ligand. The PreQ1 rs RNAs were dialyzed against 10 mM potassium phosphate (pH 6.2) buffer for at least 12 hours. After heating RNAs at 95° C. for 5 minutes, it was cooled quickly in the ice and annealed. All nanopore tests were performed at 500 nM concentration.
Specifically, in the buffer containing 10 mM potassium phosphate (pH 6.2) and 1M KCl, 500 nM of free PreQ1 rs was added to the cis face of a lipid bilayer with the α-HL nanopore. It was observed that the PreQ1 rs was driven by electrophoresis to block the ion current if the (+) voltage was applied on the nanopore.
Since then, to confirm whether the interaction of ligands can be detected at a single molecule level, the PreQ1 rs-PreQ1 complex was added to the cis face of the lipid bilayer with the nanopore in the buffer containing 10 mm phosphate (pH 6.2) and 1M KCl. When the (+) voltage is applied to the nanopore, the ion current is blocked as the PreQ1 rs-PreQ1 complex enters the nanopore by electrophoresis. In the current blockade event of the PreQ1 rs-PreQ1 complex, both type A and type B events were observed, and active nanopore current traces were confirmed (FIG. 17, bottom panel).

[6] = system: TPP riboswitch (TRS); assay type: binding
[7] = system: adenine-sensing riboswitch (ARS); experiment: 1D 1H NMR of ARS with adenine; conditions: high salt concentration (1M KCl)

Oc1cc(O)c2c(c1)O[C@H](c1ccc(O)c(O)c1)[C@H](O)C2 [(−)-epicatechin]
binding to ARS by 1D CPMG [1]: non-binding

Nc1ncnc2c1ncn2[C@@H]1O[C@H](COP(=O)(O)OP(=O)(O)OP(=O)(O)O)[C@@H](O)[C@H]1O [ATP]
binding to ARS by 1D CPMG [1]: non-binding

COc1cc2nc(N3CCNCC3)nc(N)c2cc1OC [DPQ, 6,7-dimethoxy-2-(1-piperazinyl)-4-quinazolinamine]
average nanopore dwell time [2]: 1.14 ms
dwell time [2]: 1.47 ms
nanopore average dwell time [3]: 9.52 ms

O=C(/C=C/c1ccc(O)c(O)c1)O[C@@H]1[C@H](O)C[C@@](O)(C(=O)O)C[C@H]1OC(=O)/C=C/c1ccc(O)c(O)c1 [NC1, 3,4-dicaffeoylquinic acid]
nanopore event type observed ([4]; ARS with ligand): types II translocation event
dwell time relative to free ARS [4]: more than twice
binding to ARS by 1D CPMG [1]: definite binding

O=C(/C=C/c1ccc(O)c(O)c1)O[C@H]1[C@H](O)C[C@](O)(C(=O)O)C[C@H]1OC(=O)/C=C/c1ccc(O)c(O)c1 [NC2, 4,5-dicaffeoylquinic acid]
nanopore event type observed ([4]; ARS with ligand): types II translocation event
dwell time relative to free ARS [4]: more than twice
binding to ARS by 1D CPMG [1]: definite binding

O=C(O)[C@H]1O[C@@H](Oc2cc(O)c3c(=O)cc(-c4ccc(O)c(O)c4)oc3c2)[C@H](O)[C@@H](O)[C@@H]1O [NC4, luteolin-7-glucuronide]
nanopore event type observed ([4]; ARS with ligand): types II translocation event
dwell time relative to free ARS [4]: more than twice
binding to ARS by 1D CPMG [1]: definite binding

NCC1C=Nc2nc(N)[nH]c(=O)c21 (stereo not shown) [PreQ1, 7-aminomethyl-7-deazaguanine]
type A event rate ([5]; PreQ1 rs-PreQ1 complex): 26.5%
type B event rate ([5]; PreQ1 rs-PreQ1 complex): 73.5%
type B event rate increase versus free PreQ1 rs ([5]; ligand-bound state): about 1.5 times

Cc1ncc(C[n+]2csc(CCO[P@](=O)(O)OP(=O)(O)O)c2C)c(N)n1 [TPP, thiamine pyrophosphate]
average dwell time [6]: 0.22 ms
dwell time of type-I event [6]: 0.21 ms
dwell time of type-II event [6]: 4.37 ms
type-II dwell time increase versus free TRS [6]: 1.3 times
type-II event rate [6]: 14.3%
type-II event rate increase versus free TRS [6]: 1.6 times

Nc1ncnc2nc[nH]c12 [adenine]
nanopore event type observed ([4]; ARS with ligand): mixture of the type I and type-II events
average dwell time (td) ([4]; ARS with ligand, all events, +100 mV, 1M KCl): 0.63 ms
dwell time of the type-I event (tI) ([4]; ARS-adenine complex): 0.28 ms
dwell time of the type-II event (tII) ([4]; ARS-adenine complex): 2.14 ms
nanopore dwell time of the type-II event (tII) ([4]; adenine added to MIX-3): 2.52 ms
type-II dwell time relative to free ARS ([4]; adenine added to MIX-3): up to 6.6 times
type-II dwell time relative to the type-I event ([4]; adenine-bound ARS): 7.64 times
binding to ARS by imino proton peaks [7]: bound

NCCCS(=O)(=O)O [tramiprosate]
binding to ARS by 1D CPMG [1]: non-binding

Neomycin
average nanopore dwell time [2]: 3.48 ms
dwell time increase versus free viral RNA [2]: about 8.1 times
